# From patent publication US20180303853A1, “COMPOSITIONS AND METHODS FOR TREATING BACTERIAL INFECTIONS USING CEFTAROLINE” (priority 2017, published 2018)
# Tested on: CYP1A2, CYP2B6, CYP2C8, CYP2C9, CYP2CI9, or CYP3A4/5
# Test: CYP induction in human hepatocytes
# Type: in vitro ADME
structure (smiles),measurement,value
CCO/N=C(\C(=O)N[C@H](C(=O)[O-])[C@@H]1NC(C(=O)[O-])=C(Sc2nc(-c3cc[n+](C)cc3)cs2)CS1)c1nsc(N)n1.[H+] [ceftaroline M-1],induction of CYP isoenzymes,not inducers
